Measured values published in US20240271213A1, “METHODS AND COMPOSITIONS COMPRISING FUNCTIONAL GENOMICS OF HIBERNATING MAMMALS” (Fauna Bio Incorporated, priority 2021, published 2024).

Experiments:
[1] = test system: AC16 cells; experiment: Ischemia-reperfusion assay in AC16 cells, cell viability; type: cell-based, human; conditions: 16 hours ischemia, 4 hours reperfusion, compound added prior to ischemia
Procedure: FIG. 18A is a graph showing in vitro cell viability of AC16 cells following 16 hrs ischemia and 4 hrs reperfusion and incubated with different concentrations of a compound identified for neuroprotection, Triptolide.
(§1) For ischemia-reperfusion assays, de-oxygenated serum free medium was prepared by adding 1% penicillin-streptomycin into glucose-free DMEM; the medium was contacted for 5 mins with 5% CO2 and 95% N2; and the medium was then warmed in a 37° C. bath. Cells were then washed with warm PBS to completely remove normal culture medium. PBS was aspirated and deoxygenated serum free medium was added into plates (100 μl was added for each well of 96-well plate). To mimic myocardial ischemia, cells in the experiment plate were subjected to ischemia by culturing them in glucose and serum free-medium and hypoxic conditions (5% CO2 and 95% N2). Plates were placed in a hypoxia chamber and air-tight lock; the chamber was filled with 5% CO2 and 95% N2 until oxygen level is 0%, and then the chamber was placed in the incubator for a duration of ischemia time. […] Cell viability was determined by MTT assay The control cells were considered to be 100% viable; changes in viability in the experiment plates were measured relative to the control. […]

[2] = test system: AC16 cells; experiment: Ischemia-reperfusion assay in AC16 cells, cell damage (LDH activity); type: cell-based, human; conditions: 16 hours ischemia, 4 hours reperfusion, compound added prior to ischemia
Procedure: FIG. 18B is a graph showing a decrease in cell damage response (LDH activity) of AC16 cells following 16 hrs ischemia and 4 hrs reperfusion and incubated with different concentrations of Triptolide.
as §1, with “time. The duration of ischemia was 21 hours for H9C2 cells; 29 hours for differentiated SH-SY5Y cells; 16 hours for AC16 cells; and 16 hours for native SH-SY5Y cells.” for “time.”

[3] = test system: AC16 cells; experiment: Reactive oxygen species (ROS) production in AC16 cells; type: cell-based, human; conditions: AC16 cells following incubation with compound
[4] = test system: SH-SY5Y cells; experiment: Aβ1-42 induced toxicity in SH-SY5Y cells, viability by MTT; type: cell-based, human; conditions: Aβ1-42 peptide added, vs vehicle control
Excerpt: Alzheimer's disease progression features the accumulation of two protein aggregates: β-amyloid (Aβ) and tau; these play crucial roles in neuronal loss or dysfunction in Alzheimer's disease. To mimic pathogenesis of Alzheimer's disease, we used in vitro cell models that focus on Aβ-induced toxicity and tau hyperphosphorylation. SH-SY5Y human neuroblastoma cells (American Type Culture Collection; ATCC) were purchased and grown in appropriate culture medium. First, OE/KD and WT SH-SY5Y cells were equally seeded in wells of 96-well plates. Human SH-SY5Y neuroblastoma cells were successfully differentiated into mature neurons by incubating cells in retinoic acid and N2 supplement for 9 days (FIG. 16). These can be distinguished from the original SH-SY5Y cells, which are prone to grow in clusters and extend short neurites at edges of the clusters. […] Aβ-induced toxicity was examined by adding Aβ1-42 peptide to both WT and OE/KD cells. Aβ1-42 induced cell death in WT cells. […] To validate potential neuroprotective compounds identified by the integrated gene networks described above, in vitro assays were conducted with SH-SY5Y cells. Aβ-induced toxicity was examined by adding Aβ1-42 peptide to cells treated with vehicle control or test compounds (FIG. 19). […] Tau hyperphosphorylation was also examined, by exposing the SH-SY5Y cells to hypothermic conditions (30° C.).

[5] = test system: H9C2 cells; experiment: Ischemia-reperfusion assay in H9C2 cells, viability by MTT; type: cell-based, rat; conditions: melatonin added at start of ischemia, control wells ~75% viable, normoxic control = 100%
Procedure: FIG. 17 is a graph illustrating results of an in vitro validation assay for ischemia-reperfusion injury in H9C2 cells. H9C2 cells were exposed to ischemia for […] and reperfusion for 4 hrs were contacted with differing concentrations of melatonin at the start of ischemia. Viability was measured using the MTT assay. Data are expressed as the mean +/− standard deviation in experiments performed in triplicate. * p<0.05 and ** […] compared to vehicle control.
as §1, with “N2).” for “N2). Plates were placed in a hypoxia chamber and air-tight lock; the chamber was filled with 5% CO2 and 95% N2 until oxygen level is 0%, and then the chamber was placed in the incubator for a duration of ischemia time.”

## CC(C)[C@]12O[C@H]1[C@@H]1O[C@]13[C@]1(O[C@H]1C[C@H]1C4=C(CC[C@@]13C)C(=O)OC4)[C@@H]2O [Triptolide]
[1]
  cell viability after ischemia-reperfusion: increased cell viability
[2]
  cell damage (LDH activity) after ischemia-reperfusion: reduced cell damage
[3]
  production of reactive oxygen species (ROS): decrease production of reactive oxygen species (ROS)

## CC12CC3CC(C)(C1)CC(N)(C3)C2 [Memantine]
[4]
  cell viability under Aβ1-42 toxicity (MTT): increase in cell viability

## COc1ccc2[nH]cc(CCNC(C)=O)c2c1 [melatonin]
[5]
  viable cells after ischemia-reperfusion (MTT): ~90%
